We go through 3 compounds from ChEMBL document CHEMBL4043234, “Anticancer efficacy of p-dodecylaminophenol against high-risk and refractory neuroblastoma cells in vitro and in vivo” (Bioorg Med Chem Lett, 2017).

Experiment [1] has as its system SK-N-AS. Nature of the experiment: Growth inhibition of human SK-N-AS cells at 1 uM after 24 hrs by MTT assay relative to control. The experiment is classed as functional. The conditions noted are these: read-out: GI. (In general: Tetrazolium assays rely on reduction of a dye to a coloured formazan, in cell work by metabolically active cells.)
In experiment [2] the test system is SK-N-AS. The experiment in a line: Growth inhibition of human SK-N-AS cells at 1 uM after 72 hrs by MTT assay relative to control. The experiment is classed as functional. The note with it: read-out: GI.
In experiment [3] the test system is IMR-32. The experiment in a line: Growth inhibition of human IMR32 cells at 0.1 uM after 24 hrs by MTT assay relative to control. The class given is functional. The note with it: IMR-32, 24 h, read-out: GI.
Experiment [4] concerns IMR-32. The experiment in a line: Growth inhibition of human IMR32 cells at 0.1 uM after 72 hrs by MTT assay relative to control. The class given is functional. The conditions noted are these: IMR-32, 72 h, read-out: GI.
Experiment [5] concerns IMR-32. The experiment in a line: Growth inhibition of human IMR32 cells at 0.4 uM after 72 hrs by MTT assay relative to control. The class given is functional. The note with it: IMR-32, 72 h, read-out: GI.
Experiment [6] relates to IMR-32. Nature of the experiment: Growth inhibition of human IMR32 cells at 0.01 uM after 72 hrs by MTT assay relative to control. The class given is functional. The note with it: IMR-32, 72 h, read-out: GI.
The test system of experiment [7] is SK-N-AS. The experiment in a line: Cell cycle arrest in human SK-N-AS cells at 4 uM up to 72 hrs by propidium iodide staining based flow cytometry. The experiment is classed as functional. For orientation: In flow cytometry, cells or beads pass a laser one at a time.
In experiment [8] the test system is SK-N-AS. The experiment in a line: Cell cycle arrest in human SK-N-AS cells assessed as accumulation at sub-G1 phase at 4 uM after 24 hrs by propidium iodide staining based flow cytometry. The class given is functional.
The test system of experiment [9] is SK-N-AS. The experiment in a line: Induction of apoptosis in human SK-N-AS cells assessed as caspase-3 activity at 4 uM after 8 to 24 hrs by CPP32 based colorimetric assay. The experiment is classed as functional, cell-based.
Experiment [10] concerns IMR-32. Nature of the experiment: Induction of apoptosis in human IMR32 cells assessed as decrease in Bcl-2 mRNA expression level at 4 uM after 24 hrs by real-time PCR method relative to control. The experiment is classed as functional. More on the design: scale not given: the % may be the effect or the level left.
Experiment [11] has as its system IMR-32. Nature of the experiment: Induction of apoptosis in human IMR32 cells assessed as decrease in Bcl-2 mRNA expression level at 4 uM after 8 hrs by real-time PCR method. The experiment is classed as functional, cell-based.
Experiment [12] concerns IMR-32. The experiment in a line: Reduction in N-myc mRNA expression level in human IMR32 cells at 4 uM after 24 hrs by real-time PCR method relative to control. The experiment is classed as functional. Details: scale not given: the % may be the effect or the level left. A general note: Quantitative PCR measures a nucleic acid by following its amplification.
In experiment [13] the test system is IMR-32. The experiment in a line: Reduction in N-myc mRNA expression level in human IMR32 cells at 4 uM after 8 hrs by real-time PCR method. The class given is functional, cell-based.
In experiment [14] the test system is SK-N-AS. The experiment in a line: Growth inhibition of human SK-N-AS cells at 4 uM after 24 hrs by MTT assay relative to control. The experiment is classed as functional. The note with it: read-out: GI.
Experiment [15] deals with SK-N-AS. Nature of the experiment: Growth inhibition of human SK-N-AS cells at 4 uM after 72 hrs by MTT assay relative to control. The class given is functional. The note with it: read-out: GI.

Calls of active or inactive are those of the source. The calls are words filed in the database; no cut-off is given here.

With `CCCCCCCCCCNc1ccc(O)cc1`, the inhibition of growth at 1 µM worked out at 44% in the experiment on SK-N-AS [1] and 60% in the experiment with SK-N-AS [2].

For the compound `CC1=C(/C=C/C(C)=C/C=C/C(C)=C/C(=O)O)C(C)(C)CCC1` [TRETINOIN], the inhibition of growth at 1 µM in the experiment with SK-N-AS [1] is 0%; with SK-N-AS [2], 3%. The inhibition of growth at 0.1 µM in the experiment with IMR-32 [3] amounted to 9%; in the experiment on IMR-32 [4], 60%. In addition, the inhibition of growth at 0.4 µM in the experiment with IMR-32 [5] is 65%. Also, the inhibition of growth at 0.01 µM with IMR-32 [6] came to 47%. Also, the outcome in the experiment on SK-N-AS [7] and in the experiment with SK-N-AS [8] was Active. In addition, the result in the experiment on SK-N-AS [9], with IMR-32 [11] and with IMR-32 [13] was inactive. For the same compound, the Activity amounted to 67% in the experiment with IMR-32 [10] and 13% in the experiment on IMR-32 [12].

Take `CCCCCCCCCCCC(=O)Nc1ccc(O)cc1`: the inhibition of growth at 4 µM in the experiment with SK-N-AS [14] was 22%; with SK-N-AS [15] it was 24%.
